# Legend:
# [1] = system: Hela cells stably expressing GFP-LC3; assay: GFP-LC3 puncta in Hela cells stably expressing GFP-LC3, with or without bafilomycin A1; assay type: cell-based; settings: for numbers of GFP-LC3 puncta (autophagosomes): Hela cells, normal medium, compared with starvation; for accumulation of GFP-LC3 puncta, LC3-II and p62 (autophagic flux): co-treated with lysosomal inhibitor bafilomycin A1, compared to normal conditions
# Excerpt: Results represent mean±s.e.m. Statistics are comparing the indicated value with or without BafA 1 to the one under the normal condition.
# Accordingly, an important translational question is how to reduce Beclin 2 activity to maintain CB sensitivity and prevent drug tolerance induced by repeated cannabinoid exposure. To avoid the technical difficulty and risk of directly deleting Beclin 2 in vivo (such as injecting shRNAs or CRISPR/Cas9 constructs), which may disrupt Beclin 2-regulated autophagy, a novel and more convenient strategy to achieve the same goal via modulating the Beclin 2 interactome was developed and tested, which will not affect the essential autophagy function of Beclin 2 (FIG. 6A). Beclin 2 is present in two distinct protein complex pools, the Beclin 2-class Ill phosphatidylinositol 3-kinase complex for autophagy, and the Beclin 2-GASP1-GPCR complex in which Beclin 2-GASP1 binding is required for GPCR degradation. Thus, it was hypothesized that Beclin 2 is a limiting factor that regulates the balance between the two lysosomal degradation pathways, and that competitive recruitment of Beclin 2 to the autophagy machinery by activating autophagy prevents it from functioning in CB1R downregulation and thus restores CB1R functionality and reverses drug tolerance. To test this hypothesis, whether autophagy activation by brain-penetrable inducers inhibits the Beclin 2-GASP1 interaction was first examined. […] To determine autophagy activation by the two compounds, several markers of autophagy induction were analyzed, including formation of autophagosomes in cells and transgenic mice expressing GFP-tagged LC3 (an autophagosome marker), degradation of p62 (an autophagy substrate protein), and conversion of LC3 from the non-lipidated form (LC3-1) to the autophagosome-associated lipidated form (LC3-11). […]
# To determine autophagy activation by the 2 compounds ML246 and Rg2, several markers of autophagy induction were analyzed, including formation of autophagosomes in cells and transgenic mice expressing GFP-tagged MAP1LC3/LC3 (microtubule-associated protein 1 light chain 3; an autophagosome marker), degradation of SQSTM1/p62 (sequestosome 1; an autophagy receptor and substrate protein), and conversion of LC3 from the non-lipidated form (LC3-I) to the phagophore- and autophagosome-associated lipidated form (LC3-II). […]
# Hela cells = assay: Western blot detection of LC3 and p62 in Hela cells; assay type: cell-based
# Experimental: Western blot analyses. Cell or mouse muscle and brain extracts were prepared in lysis buffer containing 50 mM Tris (pH 7.4), 150 mM NaCl, 1 mM EDTA, 1% Triton X-100, halt proteinase inhibitor cocktail (ThermoFisher Scientific) and halt phosphatase inhibitor cocktail (ThermoFisher Scientific), and subjected to western blot analysis with anti-LC3 (Novus Biologicals, NB100-2220), anti-SQSTM 1 (Abnova, H00008878-M01), anti-Af342 (Invitrogen; 700254), anti-APP (Biolegend; 803001), HRP-conjugated GFP antibody (Santa Cruz Biotechnology, sc9996), anti-HA (Cell Signaling Technology, C29F4), anti-ATG7 (Sigma Aldrich; A2856), anti-LDLR (Abeam, ab52818), anti-LRP 1 (Abeam, ab92544), and anti-ACTB/f3-actin-HRP (Santa Cruz Biotechnology, sc47778 HRP) antibodies. The band intensity was analyzed using the ImageJ software.
# WT mice = assay: Analgesic tolerance test during chronic WIN treatment; assay type: in vivo, mouse; settings: WT mice, co-treatment with daily WIN for 14 d, compared with vehicle
# Experimental: Briefly, mice were injected with WIN for 14 d, and analgesic tolerance was measured without WIN treatment on day 0, and after 1-h WIN treatment on day 1 and day 14.
# There were no genotype differences either in basal pain sensitivity to infrared heat-generated pain (agonist-free, day 0) (FIG. 2C), or in analgesic effects of acute WIN treatment prior to chronic WIN administration (day 1) (FIG. 2D).
# CB1R = assay: Brain CB1R (CNR1) level by Western blot after chronic WIN; assay type: in vivo, mouse; settings: mice concurrently treated with daily WIN for 14 d
# Experimental: To investigate whether restoration of CB1R signaling underlies the behavioral regulation by autophagy activation, the level and functionality of CB1R in mouse brain after co-administration of chronic cannabinoids and autophagy inducers were analyzed. […] To determine whether the increased level of CB1R represents CB1R re-sensitization in the brain, the agonist-induced phosphorylation of signaling kinases downstream of CB1R after chronic WIN exposure were analyzed.
# 5XFAD mice = assay: Morris water maze test of 5XFAD mice; assay type: in vivo, mouse
# Experimental: Escape latency and total distance traveled in visible platform test and hidden platform test are shown. N=10-11. Results represent mean±s.e.m. Two-way repeated measures ANOVA.
# Escape latency and total distance traveled in visible platform test and hidden platform test are shown. Results represent mean±s.e.m. Statistics were analyzed by the IBM SPSS Statistics Tools comparing differences between 2 curves.
# Morris water maze testing. For animal behavior, 6-month old mice were tested. The Morris water maze test consists of two sections: the visible platform testing and hidden platform testing. During the tests, mice were placed in the water tank filled with opaque water (maintained at 25° C.), with their heads facing toward the tank wall. In the visible platform section, a black platform extending 2 cm above the water level was used for these trials. For each trial, the platform was randomly positioned, and the mouse was placed in the tank at different start positions. The trial was stopped after the mouse found and climbed onto the platform, and the escape latency was recorded. […] Mice were tested for 4 days with eight trials per day. In the hidden platform section, a transparent platform underneath the water level was used instead of the black one during all trials, mice were tested with a fixed platform location over 5 days period with six trials per day, and they were allowed to search the platform in 60 s. In the tests, two parameters were evaluated: the trail duration (s) and distance to the platform (m).
# [2] = Brain penetration / pharmacokinetics study; settings: for brain penetration: mouse, in vivo
SMILES,numbers of GFP-LC3 puncta (autophagosomes) [1],"accumulation of GFP-LC3 puncta, LC3-II and p62 (autophagic flux) [1]",levels of p62 (SQSTM1) (Hela cells),pain-relieving effect of WIN on day 14 (WT mice),levels of CB1R (CNR1) in the brain (CB1R),"performance during the hidden platform trials (5XFAD mice; 6-month old 5XFAD mice, ML246 daily for 5 weeks)",brain penetration [2],"escape latency and distance, hidden platform (5XFAD mice; 5XFAD mice, Rg2 for 4 months)","escape latency or distance, visible platform (5XFAD mice; WT, vehicle-treated and Rg2-treated mice)",brain level ([2]; 24 h postinjection),time of peak brain level after injection ([2]; brain) [min]
N=c1c2c(-c3ccccc3)c(-c3ccccc3)n(Cc3ccccc3)c2ncn1[C@H]1CC[C@H](O)CC1 [ML246],markedly increased,more accumulation,decreased,potently rescued,higher levels,improved the performance,can pass the blood-brain barrier,,,,
"CC(C)=CCC[C@](C)(O)[C@H]1CC[C@]2(C)[C@@H]1[C@H](O)C[C@@H]1[C@@]3(C)CC[C@H](O)C(C)(C)[C@@H]3[C@@H](O[C@@H]3O[C@H](CO)[C@@H](O)[C@H](O)[C@H]3O[C@@H]3O[C@@H](C)[C@H](O)[C@@H](O)[C@H]3O)C[C@]12C [Rg2, ginsenoside Rg2]",markedly increased,more accumulation,decreased,potently rescued,higher levels,,able to enter the brain,significantly improved performance,no significant difference,still detectable,15
